# Assays:
# Format in all cases: in vivo
# test plants = assay: Example B2 herbicidal action, post-emergence, pots in glasshouse, damage score 0-10 (10=total damage to plant; 0=no damage to plant); conditions: Example B2 protocol, after 13 days, result in words
# Method: Seeds of a variety of test species were sown in standard soil in pots. After 8 days cultivation (post-emergence) under controlled conditions in a glasshouse (at 24/16° C., day/night; 14 hours light; 65% humidity), the plants were sprayed with an aqueous spray solution derived from the formulation of the technical active ingredient in acetone/water (50:50) solution containing 0.5% Tween 20 (polyoxyethelyene sorbitan monolaurate, CAS RN 9005-64-5). The test plants were then grown in a glasshouse under controlled conditions in a glasshouse (at 24/16° C., day/night; 14 hours light; 65% humidity) and watered twice daily. After 13 days, the test was evaluated (10=total damage to plant; 0=no damage to plant).
# Amaranthus retroflexus [1] = assay: Example B1 herbicidal action, post-emergence, seed trays in climatic chamber, damage score 0-10; conditions: 1000 g/ha, evaluated after 9 days, 10=total damage to plant, 0=no damage to plant
# Method: (§1) Seeds of a variety of test species were sown in sterilized standard soil in seed trays each having 96 cells. After cultivation for 8 to 9 days cultivation (post-emergence) under controlled conditions in a climatic chamber (cultivation at 23/17° C., day/night; 13 hours light; 50-60% humidity), the plants were treated with an aqueous spray solution of 1000 mg/l of the active ingredient dissolved in 10% DMSO (dimethyl sulfoxide, CAS RN 67-68-5) as a solvent, equivalent to 1000 g/ha. The plants were grown in the climatic chamber after application at (24/19° C., day/night; 13 hours light; 50-60% humidity) and watered twice daily. After 9 days until the test was evaluated (10=total damage to plant, 0=no damage to plant)
# Nasturtium officinale = assay: as above; conditions: 1000 g/ha, evaluated after 9 days, 10=total damage to plant, 0=no damage to plant
# Method: as §1
# Solanum nigrum [2] = assay: as above; conditions: 1000 g/ha, evaluated after 9 days, 10=total damage to plant, 0=no damage to plant
# Method: as §1
# Stellaria media = assay: as above; conditions: 1000 g/ha, evaluated after 9 days, 10=total damage to plant, 0=no damage to plant
# Method: as §1
# Amaranthus retroflexus [3] = assay: Example B2 herbicidal action, post-emergence, pots in glasshouse, damage score 0-10; conditions: application post-emergence, rate 1000 g/ha, evaluated after 13 days
# In short: (§2)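 Damage was assessed 13 days after a post-emergence spray given to 8-day-old pot seedlings. The spray was an aqueous solution from an acetone/water (50:50) formulation with 0.5% Tween 20. Plants grew in a glasshouse at 24/16° C, 14 h light, 65% humidity, watered twice daily.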
# Echinochloa crus-galli = assay: as above; conditions: application post-emergence, rate 1000 g/ha, evaluated after 13 days
# In short: as §2
# Ipomea hederaceae = assay: as above; conditions: application post-emergence, rate 1000 g/ha, evaluated after 13 days
# In short: as §2
# Setaria faberi = assay: as above; conditions: application post-emergence, rate 1000 g/ha, evaluated after 13 days
# In short: as §2
# Solanum nigrum [4] = assay: as above; conditions: application post-emergence, rate 1000 g/ha, evaluated after 13 days
# In short: as §2
Compound,damage to the test plants (test plants),"damage to plant, AMARE (Amaranthus retroflexus [1])","damage to plant, NAAOF (Nasturtium officinale)","damage to plant, SOLNI (Solanum nigrum [2])","damage to plant, STEME (Stellaria media)",AMARE damage score (10=total damage to plant; 0=no damage to plant) (Amaranthus retroflexus [3]),ECHCG damage score (10=total damage to plant; 0=no damage to plant) (Echinochloa crus-galli),IPOHE damage score (10=total damage to plant; 0=no damage to plant) (Ipomea hederaceae),SETFA damage score (10=total damage to plant; 0=no damage to plant) (Setaria faberi),SOLNI damage score (10=total damage to plant; 0=no damage to plant) (Solanum nigrum [4])
CCN1c2nccnc2C(OC(=O)C(C)(C)C)=C(c2ccc(Cl)c(Cl)c2)S1(=O)=O [Compound C10],little or no damage,–,–,–,–,–,–,–,–,–
COC1=C(c2cc3ccccc3nc2Cl)S(=O)(=O)N(C)c2nccnc21 [Compound C40],–,0,0,0,1,–,–,–,–,–
CN1c2nccnc2C(O)=C(c2ccc(Cl)cc2Cl)S1(=O)=O [Compound D1],–,0,7,0,8,–,–,–,–,–
CN1c2nccnc2C(OC(=O)C(C)(C)C)=C(c2ccc(Cl)c(Cl)c2)S1(=O)=O [Compound C8],–,2,0,7,0,–,–,–,–,–
"COC1=C(c2ccc(Cl)cc2Cl)S(=O)(=O)N(C)c2nccnc21 [Compound C3, 3-(2,4-dichloro-phenyl)-4-methoxy-1-methyl-1H-2-thia-1,5,8-triazanaphthalen-2,2-dioxide]",–,1,2,3,2,–,–,–,–,–
CCN1c2nccnc2C(OC(=O)C(C)(C)C)=C(c2cccc(C(F)(F)F)c2)S1(=O)=O [Compound C14],little or no damage,–,–,–,–,–,–,–,–,–
CN1c2nccnc2C(O)=C(c2c(F)ccc(F)c2Cl)S1(=O)=O [Compound D2],–,7,7,7,7,–,–,–,–,–
CC(C)C(=O)OC1=C(c2c(F)ccc(F)c2Cl)S(=O)(=O)N(C)c2nccnc21 [Compound C9],–,7,6,4,6,–,–,–,–,–
"C#CCN1c2nccnc2C(O)=C(c2ccccc2[N+](=O)[O-])S1(=O)=O [Compound D40, 3-(2-nitro-phenyl)-2,2-dioxo-1-prop-2-ynyl-1,2-dihydro-2-λ-6-thia-1,5,8-triaza-naphthalen-4-ol]",little or no damage,–,–,–,–,–,–,–,–,–
"CCOC(=O)c1ccc(C(F)(F)F)nc1C1=C(O)c2nccnc2N(CCC(F)F)S1(=O)=O [Compound D58, 2-[1-(3,3-difluoro-propyl)-4-hydroxy-2,2-dioxo-1,2-dihydro-2-λ-6-thia-1,5,8-triaza-naphthalen-3-yl]-6-trifluoromethyl-nicotinic acid ethyl ester]",little or no damage,–,–,–,–,–,–,–,–,–
CC(C)(C)C(=O)OC1=C(c2ccccc2[N+](=O)[O-])S(=O)(=O)N(CC(F)F)c2nccnc21 [Compound C66],little or no damage,–,–,–,–,–,–,–,–,–
CN1c2nccnc2C(OC(=O)C(C)(C)C)=C(c2ccc(Cl)cc2Cl)S1(=O)=O [Compound C2],–,3,4,0,6,–,–,–,–,–
CCN1c2nccnc2C(OC(=O)C(C)(C)C)=C(c2ccc(Cl)cc2Cl)S1(=O)=O [Compound C5],–,5,8,1,7,–,–,–,–,–
CN1c2nccnc2C(OC(=O)C(C)(C)C)=C(c2cc3ccccc3nc2Cl)S1(=O)=O [Compound C41],–,0,8,0,4,–,–,–,–,–
CCN1c2nccnc2C(OC(=O)C(C)C)=C(c2ccc(Cl)cc2Cl)S1(=O)=O [Compound C6],–,0,8,7,8,–,–,–,–,–
CN1c2nccnc2C(OC(=O)C2CC2)=C(c2ccc(Cl)cc2Cl)S1(=O)=O [Compound C1],–,0,4,3,6,–,–,–,–,–
"CC(C)(C)C(=O)OC1=C(c2c(F)ccc(F)c2Cl)S(=O)(=O)Nc2nccnc21 [Compound B3, 2,2-dimethyl-propionic acid-3-(2-chloro-3,6-difluoro-phenyl)-2,2-dioxo-1,2-dihydro-2-λ-6-thia-1,5,8-triaza-naphthalen-4-yl ester]",–,0,0,2,0,–,–,–,–,–
CC(C)(C)C(=O)OC1=C(c2ccc(Cl)cc2Cl)S(=O)(=O)Nc2nccnc21 [Compound B1],–,0,0,2,0,–,–,–,–,–
CN1c2nccnc2C(OC(=O)C(C)(C)C)=C(c2c(F)ccc(F)c2Cl)S1(=O)=O [Compound C4],–,7,6,5,8,–,–,–,–,–
CCN1c2nccnc2C(OC(=O)C(C)(C)C)=C(c2c(F)ccc(F)c2Cl)S1(=O)=O [Compound C7],–,3,8,7,8,–,–,–,–,–
CCN1c2nccnc2C(OC(=O)C(C)(C)C)=C(c2c(F)ccc(OC)c2Cl)S1(=O)=O [Compound C24],–,–,–,–,–,2,4,9,0,9
CC(C)C(=O)OC1=C(c2cc(C(F)(F)F)ccc2Cl)S(=O)(=O)N(CCCl)c2nccnc21 [Compound C123],–,–,–,–,–,4,2,4,1,10
CCSC(=O)OC1=C(c2c(Cl)ccc(Cl)c2Cl)S(=O)(=O)N(CC(F)F)c2nccnc21 [Compound C37],–,–,–,–,–,8,8,9,6,9
"CCOC(=O)c1ccc(C(F)(F)F)nc1C1=C(OC(=O)SC)c2nccnc2N(CCC(F)F)S1(=O)=O [Compound C139, 2-[1-(3,3-difluoro-propyl)-4-methylsulfanylcarbonyloxy-2,2-dioxo-1,2-dihydro-2-λ-6-thia-1,5,8-triaza-naphthalen-3-yl]-6-trifluoromethyl-nicotinic acid ethyl ester]",–,–,–,–,–,0,0,1,3,0
CCOC(=O)OC1=C(c2cc(Cl)ccc2C(F)(F)F)S(=O)(=O)N(CC(F)F)c2nccnc21 [Compound C120],–,–,–,–,–,9,8,10,9,9
